US20240043429A1, “TRIAZOLO PYRAZINE COMPOUND AND USE THEREOF” (TECHNODERMA MEDICINES, INC., priority 2020, published 2024)

Assays:
Type in all cases: biochemical
Tyk2 = Tyk2 (Homo sapiens, UniProt P29597); assay: Enzyme activity inhibition of JAK kinases (ULight-JAK substrate, Eu-antibody): Tyk2; settings: ATP 10 μM, 1 hour reaction at room temperature; read-out: Tyk2 half-maximum inhibitory concentration
Experimental: (§1) 1× test buffer: The test buffer was prepared, and diluted with deionized water (deionized water: test buffer=9:1) to obtain the 1×test buffer. 4× kinase solution: JAK kinase was diluted 4-fold with the kinase reaction buffer to a final concentration (JAK1: 80 nM, JAK2/JAK3/Tyk2: 4 nM). 4×substrate solution: ULight™-JAK (Tyr1023) substrate was diluted with the kinase reaction buffer to 200 nM (final concentration: 50 nM). 4× ATP solution: ATP was diluted 4-fold with the kinase reaction buffer to a final concentration (JAK1: 160 μM, JAK2/JAK3/Tyk2: 40 μM). 4× test compound solution: The test compound was dissolved with DMSO to prepare 10 mM stock solutions, and diluted 3-fold serially to required concentrations, 10 concentrations were set for each compound, and final concentrations of the test compound ranged from 10 μM to 0.5 nM. 4× enzyme reaction stop solution: 1× test buffer was used dissolve EDTA to 40 mM (final concentration of EDTA: 10 mM). 4× test antibody solution: Eu-labeled test antibody (anti-phosphotyrosine (PT66)) was diluted with 1× test buffer to 8 nM (final concentration of antibody: 2 nM). […] After incubation of the antibody, a signal value of each well was measured via Envision plate reader. […]

JAK2 = JAK2 (Homo sapiens, UniProt O60674); assay: Enzyme activity inhibition of JAK kinases (ULight-JAK substrate, Eu-antibody): JAK2; settings: JAK2 1 nM, ATP 10 μM, 1 hour reaction at room temperature; read-out: JAK2 half-maximum inhibitory concentration
Sequence of JAK2 (O60674 whole entry): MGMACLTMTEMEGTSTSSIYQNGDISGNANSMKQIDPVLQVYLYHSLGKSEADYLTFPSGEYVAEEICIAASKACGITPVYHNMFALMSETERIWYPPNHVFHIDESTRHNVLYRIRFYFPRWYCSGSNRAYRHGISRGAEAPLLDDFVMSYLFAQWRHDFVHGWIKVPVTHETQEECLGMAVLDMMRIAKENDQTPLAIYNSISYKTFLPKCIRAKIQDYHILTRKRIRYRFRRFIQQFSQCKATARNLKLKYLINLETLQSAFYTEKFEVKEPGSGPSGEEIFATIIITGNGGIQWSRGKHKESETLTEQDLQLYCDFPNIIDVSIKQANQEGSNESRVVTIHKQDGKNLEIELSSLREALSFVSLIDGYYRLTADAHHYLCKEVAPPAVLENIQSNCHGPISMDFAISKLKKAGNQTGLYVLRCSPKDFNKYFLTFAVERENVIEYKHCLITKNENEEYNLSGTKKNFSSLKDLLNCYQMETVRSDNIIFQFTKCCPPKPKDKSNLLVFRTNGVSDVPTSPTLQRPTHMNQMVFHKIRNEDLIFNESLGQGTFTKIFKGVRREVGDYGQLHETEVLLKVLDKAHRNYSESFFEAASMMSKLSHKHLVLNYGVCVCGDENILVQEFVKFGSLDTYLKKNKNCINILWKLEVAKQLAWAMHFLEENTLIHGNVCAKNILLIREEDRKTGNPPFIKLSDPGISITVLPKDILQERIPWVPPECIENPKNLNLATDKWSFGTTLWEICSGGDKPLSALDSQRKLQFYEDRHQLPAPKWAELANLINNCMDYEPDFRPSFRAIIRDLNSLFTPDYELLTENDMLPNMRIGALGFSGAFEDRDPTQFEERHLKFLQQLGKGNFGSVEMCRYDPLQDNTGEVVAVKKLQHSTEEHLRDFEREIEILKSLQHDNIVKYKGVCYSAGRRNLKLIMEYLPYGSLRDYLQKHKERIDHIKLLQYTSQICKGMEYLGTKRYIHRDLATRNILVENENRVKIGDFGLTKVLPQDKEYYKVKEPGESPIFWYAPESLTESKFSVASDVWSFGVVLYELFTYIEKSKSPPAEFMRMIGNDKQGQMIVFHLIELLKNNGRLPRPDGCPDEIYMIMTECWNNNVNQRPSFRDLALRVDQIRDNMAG
Experimental: as §1

JAK1 = JAK1 (Homo sapiens, UniProt P23458); assay: Enzyme activity inhibition of JAK kinases (ULight-JAK substrate, Eu-antibody): JAK1; settings: JAK1 20 nM, ATP 40 μM, 2 hours reaction at room temperature; read-out: JAK1 half-maximum inhibitory concentration
Sequence of JAK1 (P23458 whole entry): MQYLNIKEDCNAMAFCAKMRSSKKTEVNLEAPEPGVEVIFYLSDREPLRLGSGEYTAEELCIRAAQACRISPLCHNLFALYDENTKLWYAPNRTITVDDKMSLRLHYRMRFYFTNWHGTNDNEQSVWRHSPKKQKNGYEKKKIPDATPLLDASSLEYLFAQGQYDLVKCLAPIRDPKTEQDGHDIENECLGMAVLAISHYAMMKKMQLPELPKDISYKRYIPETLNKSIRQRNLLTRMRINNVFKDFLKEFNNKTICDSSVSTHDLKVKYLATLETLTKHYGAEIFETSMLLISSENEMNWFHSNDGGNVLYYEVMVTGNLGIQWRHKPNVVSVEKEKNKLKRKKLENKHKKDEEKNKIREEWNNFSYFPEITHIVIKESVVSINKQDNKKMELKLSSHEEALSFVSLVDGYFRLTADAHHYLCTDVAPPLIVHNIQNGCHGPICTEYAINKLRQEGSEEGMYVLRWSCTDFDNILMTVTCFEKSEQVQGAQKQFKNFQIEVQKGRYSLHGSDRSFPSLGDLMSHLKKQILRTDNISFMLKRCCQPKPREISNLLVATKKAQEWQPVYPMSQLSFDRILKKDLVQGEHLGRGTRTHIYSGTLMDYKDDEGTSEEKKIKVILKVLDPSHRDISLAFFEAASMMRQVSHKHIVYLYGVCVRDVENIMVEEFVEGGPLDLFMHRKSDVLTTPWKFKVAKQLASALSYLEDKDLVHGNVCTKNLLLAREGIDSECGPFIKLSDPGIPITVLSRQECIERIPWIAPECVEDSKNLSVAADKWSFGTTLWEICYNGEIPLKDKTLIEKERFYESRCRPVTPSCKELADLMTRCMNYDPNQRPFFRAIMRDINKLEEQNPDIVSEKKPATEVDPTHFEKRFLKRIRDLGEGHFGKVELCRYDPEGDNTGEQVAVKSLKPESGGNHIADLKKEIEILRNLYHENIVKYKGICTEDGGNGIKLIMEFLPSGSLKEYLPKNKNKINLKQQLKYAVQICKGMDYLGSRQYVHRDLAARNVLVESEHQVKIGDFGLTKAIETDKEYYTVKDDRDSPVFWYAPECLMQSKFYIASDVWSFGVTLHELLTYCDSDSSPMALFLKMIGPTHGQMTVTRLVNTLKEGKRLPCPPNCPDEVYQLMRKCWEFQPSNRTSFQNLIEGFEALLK
Experimental: as §1

Sequence of Tyk2 (P29597 whole entry): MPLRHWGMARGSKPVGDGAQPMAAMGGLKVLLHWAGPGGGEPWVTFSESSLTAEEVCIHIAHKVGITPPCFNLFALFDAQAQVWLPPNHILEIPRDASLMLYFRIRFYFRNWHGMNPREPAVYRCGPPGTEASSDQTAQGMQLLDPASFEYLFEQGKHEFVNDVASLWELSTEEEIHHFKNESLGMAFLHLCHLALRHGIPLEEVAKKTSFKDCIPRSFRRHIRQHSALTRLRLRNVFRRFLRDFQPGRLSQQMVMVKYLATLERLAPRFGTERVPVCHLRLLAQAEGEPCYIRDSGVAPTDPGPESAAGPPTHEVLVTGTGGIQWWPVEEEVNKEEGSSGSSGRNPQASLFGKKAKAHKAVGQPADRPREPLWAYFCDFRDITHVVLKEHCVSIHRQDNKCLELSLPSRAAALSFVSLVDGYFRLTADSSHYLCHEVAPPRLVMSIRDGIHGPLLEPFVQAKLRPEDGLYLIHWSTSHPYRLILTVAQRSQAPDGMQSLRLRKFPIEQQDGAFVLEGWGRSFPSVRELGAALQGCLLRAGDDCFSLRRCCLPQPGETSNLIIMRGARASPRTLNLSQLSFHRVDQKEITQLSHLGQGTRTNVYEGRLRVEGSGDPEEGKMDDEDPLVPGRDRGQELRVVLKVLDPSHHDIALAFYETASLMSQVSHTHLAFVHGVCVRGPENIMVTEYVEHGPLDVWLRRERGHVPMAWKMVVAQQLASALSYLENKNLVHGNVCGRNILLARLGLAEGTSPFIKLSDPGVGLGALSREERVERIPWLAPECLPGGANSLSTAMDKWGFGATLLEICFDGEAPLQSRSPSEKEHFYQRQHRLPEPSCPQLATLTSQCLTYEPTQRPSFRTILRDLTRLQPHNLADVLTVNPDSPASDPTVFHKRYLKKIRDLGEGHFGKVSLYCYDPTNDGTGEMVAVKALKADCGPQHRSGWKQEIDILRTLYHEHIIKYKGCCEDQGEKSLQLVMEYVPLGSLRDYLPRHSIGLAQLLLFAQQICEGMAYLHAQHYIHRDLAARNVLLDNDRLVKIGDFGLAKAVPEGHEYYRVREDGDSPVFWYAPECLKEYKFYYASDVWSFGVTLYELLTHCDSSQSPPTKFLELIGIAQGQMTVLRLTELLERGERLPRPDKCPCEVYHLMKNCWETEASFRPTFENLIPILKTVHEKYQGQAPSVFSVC

Row | IC50 (Tyk2) [µM] | IC50 (JAK2) [µM] | IC50 (JAK1) [µM] | SMILES
1 | 0.111 | 2.42 | – | Cn1cc(-c2cn3ncnc3c(-c3ccn([C@]4(CC#N)C[C@@H](C#N)C4)c3)n2)cn1 [TDM-181020, (1r,3r)-3-(cyanomethyl)-3-(3-(6-(1-methyl-1H-pyrazol-4-yl)-[1,2,4]triazolo[1,5-a]pyrazin-8-yl)-1H-pyrrol-1-yl)cyclobutane-1-carbonitrile]
2 | 0.014 | 0.138 | 1.21 | Cn1cc(-c2cn3ncnc3c(-c3ccn([C@]4(CC#N)C[C@H](C#N)C4)c3)n2)cn1 [TDM-181021, (1s,3s)-3-(Cyanomethyl)-3-(3-(6-(1-Methyl-1H-Pyrazol-4-Yl)-[1,2,4]Triazolo[1,5-a]Pyrazin-8-Yl)-1H-Pyrrol-1-Yl)Cyclobutane-1-Carbonitrile]
